Measurements published in article PMC11589570, “Critical assessment of LC3/GABARAP ligands used for degrader development and ligandability of LC3/GABARAP binding pockets” (Nature Communications, 2024).
Where “and” joins values, the source holds several entries; their conditions need not be identical. Equal entries are not always repeated.

Test system: U2OS cells
Test: Cell growth assay (IncuCyte confluence over 72 h)
Assay type: cell-based
Parameters: key to U2OS cell growth: % of well area covered by cells (confluence)
Method: Cell growth assay: Cell confluence (phase) from RPE1 (hTERT RPE-1, ATCC CLR_4000) or U2OS (ATCC, HTB-96) cell lines were monitored over time with the IncuCyte S3 (Sartiorius, Germany) in 384-well plates in 50 ul DMEM media, supplemented with 10% Fetal Bovine Serum (FBS) 1% penicillin/Streptomycin and incubated 24 h before treatment. Experiment was performed as described in Cano-Franco et al.. […] Cell confluence is represented as % of area covered by cells. Each data point represents the average ratio or confluence obtained from three individual wells of the plate.

SMILES: O=C1Nc2ccc(Br)cc2C1=Cc1cc(O)c(O)c(Br)c1 [compound 1]
- U2OS cell growth (100 nM, time 12 h, listed as AN1): 35.4537 and 32.3571 and 35.5968
- U2OS cell growth (100 nM, time 14 h, listed as AN1): 36.0873 and 39.0366 and 39.8543
- U2OS cell growth (100 nM, time 16 h, listed as AN1): 40.1608 and 39.3939 and 40.4478
- U2OS cell growth (100 nM, time 18 h, listed as AN1): 39.1099 and 37.1872 and 41.4362
- U2OS cell growth (100 nM, time 20 h, listed as AN1): 43.7035 and 39.6959 and 46.4166
- U2OS cell growth (500 nM, time 10 h, listed as AN1): 38.9338 and 41.9757 and 41.002
- U2OS cell growth (500 nM, time 12 h, listed as AN1): 39.0148 and 42.3639 and 41.6671
- U2OS cell growth (500 nM, time 14 h, listed as AN1): 46.8116 and 46.7871 and 49.5823
- U2OS cell growth (500 nM, time 16 h, listed as AN1): 47.3468 and 53.1118 and 48.7734
- U2OS cell growth (500 nM, time 18 h, listed as AN1): 38.8125 and 47.7715 and 46.4243
- U2OS cell growth (1 uM, time 10 h, listed as AN1): 48.4994 and 57.2399 and 59.5515
- U2OS cell growth (1 uM, time 12 h, listed as AN1): 47.4737 and 55.8868 and 54.1029
- U2OS cell growth (1 uM, time 14 h, listed as AN1): 46.9999 and 57.1898 and 59.5195
- U2OS cell growth (1 uM, time 16 h, listed as AN1): 54.858 and 68.5371 and 64.7822
- U2OS cell growth (1 uM, time 18 h, listed as AN1): 48.8637 and 59.8627 and 56.3987
- U2OS cell growth (1 uM, time 20 h, listed as AN1): 55.1556
- U2OS cell growth (3 uM, time 10 h, listed as AN1): 50.7422 and 64.1291 and 54.5819
- U2OS cell growth (3 uM, time 12 h, listed as AN1): 47.9181 and 60.7394 and 55.125
- U2OS cell growth (3 uM, time 14 h, listed as AN1): 49.0342 and 60.5893 and 56.0885
- U2OS cell growth (3 uM, time 16 h, listed as AN1): 57.6695 and 67.0321 and 61.6341
- U2OS cell growth (3 uM, time 18 h, listed as AN1): 48.0442 and 62.2285 and 59.0264
- U2OS cell growth (3 uM, time 20 h, listed as AN1): 51.1291 and 66.3122 and 66.4452
- U2OS cell growth (5 uM, time 10 h, listed as AN1): 55.0487 and 54.3842 and 51.4536
- U2OS cell growth (5 uM, time 12 h, listed as AN1): 54.96 and 58.942 and 53.816
- U2OS cell growth (5 uM, time 14 h, listed as AN1): 49.0714 and 54.2863 and 67.0438
- U2OS cell growth (5 uM, time 16 h, listed as AN1): 60.7907 and 61.6888 and 65.4648
- U2OS cell growth (5 uM, time 18 h, listed as AN1): 57.5124 and 66.5017 and 59.7417
- U2OS cell growth (5 uM, time 20 h, listed as AN1): 63.2102 and 60.2689 and 68.651
- U2OS cell growth (10 uM, time 10 h, listed as AN1): 59.7697 and 44.8684 and 48.7466
- U2OS cell growth (10 uM, time 12 h, listed as AN1): 61.5092 and 47.1657 and 52.5139
- U2OS cell growth (10 uM, time 14 h, listed as AN1): 62.1617 and 46.5884 and 50.2783
- U2OS cell growth (10 uM, time 16 h, listed as AN1): 65.2687 and 51.6571 and 54.5952
- U2OS cell growth (10 uM, time 18 h, listed as AN1): 66.9364 and 52.1914 and 55.4238
- U2OS cell growth (10 uM, time 20 h, listed as AN1): 65.8459 and 51.6884 and 56.9826

SMILES: O=c1cc(-c2ccccc2)c2c(O)cc(O)cc2o1 [compound 2]
- U2OS cell growth (100 nM, time 0 h, listed as AN2): 19.1869 and 23.0588 and 16.4621
- U2OS cell growth (100 nM, time 2 h, listed as AN2): 26.3735 and 32.6169 and 19.3997
- U2OS cell growth (100 nM, time 4 h, listed as AN2): 24.7952 and 30.3994 and 22.748
- U2OS cell growth (100 nM, time 6 h, listed as AN2): 35.0609 and 34.7921 and 28.0047
- U2OS cell growth (500 nM, time 0 h, listed as AN2): 31.1146 and 31.1409 and 25.529
- U2OS cell growth (500 nM, time 2 h, listed as AN2): 37.2793 and 37.1141 and 29.374
- U2OS cell growth (500 nM, time 4 h, listed as AN2): 35.0603 and 34.3575 and 27.3746
- U2OS cell growth (500 nM, time 6 h, listed as AN2): 41.7549 and 43.2861 and 37.4758
- U2OS cell growth (500 nM, time 10 h): 32.7403
- U2OS cell growth (1 uM, time 0 h, listed as AN2): 36.01 and 37.7334 and 44.0066
- U2OS cell growth (1 uM, time 2 h, listed as AN2): 41.2565 and 41.9214 and 49.8222
- U2OS cell growth (1 uM, time 4 h, listed as AN2): 42.1175 and 41.7454 and 46.9501
- U2OS cell growth (1 uM, time 6 h, listed as AN2): 43.4595 and 43.9324 and 52.0735
- U2OS cell growth (1 uM, time 8 h, listed as AN2): 40.5517 and 44.5898 and 47.4794
- U2OS cell growth (1 uM, time 10 h, listed as AN2): 50.4894 and 50.7087 and 57.5735
- U2OS cell growth (1 uM, time 12 h, listed as AN2): 52.169
- U2OS cell growth (3 uM, time 0 h, listed as AN2): 52.9397 and 44.5639 and 41.1773
- U2OS cell growth (3 uM, time 2 h, listed as AN2): 56.1844 and 48.7409 and 42.4981
- U2OS cell growth (3 uM, time 4 h, listed as AN2): 62.7365 and 55.2773 and 40.1715
- U2OS cell growth (3 uM, time 6 h, listed as AN2): 59.0724 and 50.9181 and 40.9833
- U2OS cell growth (3 uM, time 8 h, listed as AN2): 54.8708 and 50.2365 and 43.1088
- U2OS cell growth (3 uM, time 10 h, listed as AN2): 58.4454 and 57.5785 and 49.1427
- U2OS cell growth (3 uM, time 12 h, listed as AN2): 58.133 and 56.9126
- U2OS cell growth (5 uM, time 0 h, listed as AN2): 43.5311 and 39.437 and 42.1256
- U2OS cell growth (5 uM, time 2 h, listed as AN2): 49.0024 and 44.0014 and 45.1119
- U2OS cell growth (5 uM, time 4 h, listed as AN2): 52.676 and 42.1033 and 45.9331
- U2OS cell growth (5 uM, time 6 h, listed as AN2): 55.9501 and 52.2867 and 48.2418
- U2OS cell growth (5 uM, time 8 h, listed as AN2): 48.351 and 54.4267 and 50.4706
- U2OS cell growth (5 uM, time 10 h, listed as AN2): 60.2478 and 59.3897 and 54.3527
- U2OS cell growth (10 uM, time 0 h, listed as AN2): 38.4245 and 29.6214 and 35.113
- U2OS cell growth (10 uM, time 2 h, listed as AN2): 42.0042 and 29.7485 and 38.264
- U2OS cell growth (10 uM, time 4 h, listed as AN2): 45.9814 and 34.6443 and 44.264
- U2OS cell growth (10 uM, time 6 h, listed as AN2): 49.3993 and 33.9992 and 45.6677
- U2OS cell growth (10 uM, time 8 h, listed as AN2): 46.5429 and 32.9506 and 41.2472
- U2OS cell growth (10 uM, time 10 h, listed as AN2): 49.5589 and 37.0749 and 46.636
